What all share (assay type): biochemical
Test [1] concerns the target T1, porcine pancreatic PLA2 (Sus scrofa, UniProt P00592).
T1 construct: purchased Sigma
As to the kind of experiment: PLA2 assay: in vitro porcine pancreatic phospholipase A2, preincubation of drug+enzyme, substrate 2 nM. Particulars: preincubation, subs. con. 2; for inhibition at 25 µg/mL: dose 25 μ/ml; for inhibition at 50 µg/mL: dose 50 μ/ml. Here is the method:
(§1) Phospholipase A2 activity was measured by a radiochemical assay in which labeled synthetic phosphatidylcholine substrate is converted by porcine pancreatic PLA2 to free radiolabeled arachidonate and lyso PC. Radiolabeled arachidonate is extracted from the reaction mixture and separated from unreacted substrate by column chromatography or TLC. Radioactivity (cpm) in samples is quantitated by liquid scintillation counting. Specific details are as follows:
(§2) Labeled substrate(1-stearyl-2-^3 H-arachidonylphosphatidylcholine; Amersham, sp. act. 84 (uCi/mmole, 0.025 to 0.2 uCi/assay tube and unlabeled substrates (Avanti), in sufficient quantity to give 20,000 cpm to 50,000 cpm and 10 μM to 1,000 μM final concentration/assay tube are dried under a stream of nitrogen. The PLA2 and mPLA2 assays utilized a […] substrate concentration. The mHPLA2 and HPLA2 assays (vida infra) utilized a 10 μM substrate concentration and the SmPLA2 assay utilized a substrate concentration ranging from 100 to 1000 μm. The substrate is then redissolved in 0.1M tris-HCl buffer, pH 9.0 containing 10 mM CaCl2 and 10 mM Na taurocholate detergent. The mixture is sonicated in a Kontes Sonifier to yield a homogeneous dispersion. The "mixed" micellar substrate is clear. An aliquot is reserved for a cpm count (total substrate). The total reaction volume is 500 μL; siliconized glassware or plasticware is used throughout. Enzyme (Sigma, sp. act.>690 U/mg protein and preferably 900 U/mg protein) is diluted 1:750 or 1:1000 in 0.1M tris-HCl buffer, pH 9.0 (without Ca^++ and detergent). Enzyme dilution depends on substrate concentration and required enzyme concentration.
(§3) The substrate in buffer is kept on ice until the reaction is started. The reaction is started by adding 10 μL of diluted enzyme solution to 490 μL of micellar substrate solution. Samples are incubated in a 37° C. water bath for 15 minutes with gentle mixing. The reaction is terminated by the addition of 100 μL of 1M fresh trichloroacetic acid (TCA) solution and chilling the tubes on ice for 30 minutes.
(§4) Samples (600 μL) are extracted with 3 ml CHCl3 /MeOH (2:1) for thin layer chromatography or in hexane/ether (9:1) for column chromatography. The phases are separated by gentle centrifugation at 700 rpm×5'. The organic phase is recovered.
(§5) Labeled arachidonate extracted with CHCl3 /MeOH is separated on silica gel G TLC plates (Analtech). Twenty μL of a 2 mg/ml internal standard solution of arachidonic acid (Sigma) is combined with 2-3 ml of the organic phase. The entire mixture is dried under nitrogen and redissolved in 50 μL of CHCl3 /MeOH (2:1). A 20 μL sample is counted in 10 ml of Beckman Redi-solv HP and spotted on silica gel G plates. The solvent system used to develop the plate is CHCl3 /MeOH/13.5N NH3 /H2 O (70:30:4:1). Plates are developed in a glass chamber for 1-11/2 hours, air dried, and the spots visualized in an iodine vapor chamber. Standards of phosphatidylcholine, lyso PC, and arachidonic acid (Sigma) are made as 2 mg/ml stocks in CHCl3 /MeOH (2:1) and spotted on plates. Spots corresponding to arachidonate and phospholipid are scraped and counted in 10 ml Beckman Redi-Solv HP scintillation fluid.
(§6) Samples are extracted with hexane/ether and the upper organic phase recovered. An aliquot is applied to a Silicar CC4 (Malincrodt) column. Columns are prepared using 1 ml of a 1:1 slurry of silicar CC4 in hexane/ether in a Pasteur pipet (approx. 2 cm height). Columns are rinsed with 500 μL of hexane/ether before adding the sample (300-600 μL) to the column. Columns are eluted with a total of 6 ml of hexane/ether. The 6 ml sample is counted in 10 ml of Beckman Redi-Solv HP scintillation fluid.
or the phospholipase A2 assay, compounds are prepared as 1 mg/ml stock solutions in MeOH and diluted appropriately in PBS.

Test [2] concerns the target T1, porcine pancreatic PLA2. Kind of test: MHPLA2 assay: in vitro porcine pancreatic phospholipase A2, mixed micelle design, [s]=10 μm. Conditions: for % Inh.: subs. con. 10. Here is the method:
as §1, §2, §3, §4, §5, §6
(§7) or the phospholipase A2 assay, compounds are prepared as 1 mg/ml stock solutions in MeOH and diluted appropriately in PBS. […]

Test [3] concerns the target T1, porcine pancreatic PLA2. As to the kind of experiment: MPLA2 assay: in vitro porcine pancreatic phospholipase A2, mixed micelle design, substrate 2 nM. Conditions: for inhibition at 10 µg/mL: dose 10 μ/ml; for inhibition at 20 µg/mL: dose 20 μ/ml. Here is the method:
as §1, §2, §3, §4, §5, §6, §7

[4] abbreviates: read-out: IC50 Avg. (converted).
[5] abbreviates: dose 10 μ/ml, subs. con. 10, read-out: % Inh.
The mark [6] stands for this setting: dose 10 μ/ml, read-out: % Inh. Avg.
Setting [7] is: dose 25 μ/ml, subs. con. 10, read-out: % Inh. Avg.

Each structure is given as a SMILES string. Values joined by “and” are separate entries in the source; they are usually repeats but may differ in a detail not shown here. Identical values can stand only once. Counter-ions that a name gives are not always drawn. Like-named read-outs stand apart in the source and are kept apart here.

T1 sequence (P00592 23-146): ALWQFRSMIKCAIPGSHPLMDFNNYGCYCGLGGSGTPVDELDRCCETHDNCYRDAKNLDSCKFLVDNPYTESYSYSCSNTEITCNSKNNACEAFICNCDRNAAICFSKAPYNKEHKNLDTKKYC

Take `CCCCCCCCCCCCCCCCOCC(COP(=O)([O-])OCC[N+](C)(C)C)OP(=O)(OC)OCCCCCCCCCCCCCCCC` (stereo not drawn) [3,5,8,10-Tetraoxa-4,9-diphosphahexacosan-1-aminium, 7-[(hexadecyloxy)methyl]-4-hydroxy-9-methoxy-N,N,N-trimethyl-hydroxide, inner salt, 4,9-dioxide]: the inhibition at 10 µg/mL at porcine pancreatic PLA2 [1] (dose 10 μ/ml, read-out: % Inh.) was 61%; at porcine pancreatic PLA2 [2] (setting [5]) it was 0%. Also, the inhibition at 20 µg/mL at porcine pancreatic PLA2 [1] (dose 20 μ/ml, read-out: % Inh.) was 65%. Moreover, the inhibition at 25 µg/mL was 71% at porcine pancreatic PLA2 [1] (read-out: % Inh.) and 77% on porcine pancreatic PLA2 [1] (read-out: % Inh. Avg.). The inhibition at 50 µg/mL on porcine pancreatic PLA2 [1] (read-out: % Inh.) was 73% and 88%; on porcine pancreatic PLA2 [1] (read-out: % Inh. Avg.) it was 80%. The IC50 on porcine pancreatic PLA2 [1] (read-out: IC50 (converted)) is 7.5 µM and 5.62 µM and 7.25 µM; at porcine pancreatic PLA2 [1] (setting [4]) it was 6.75 µM.
As to `CCCCCCCCCCCCCCCCOCC(COP(=O)([O-])OCC[N+](C)(C)C)OP(=O)(OC)OCCCCC` (single isomer, unassigned) [3,5,8,10-Tetraoxa-4,9-diphosphapentadecan-1-aminium, 7-[(hex] [3,5,8,10-Tetraoxa-4,9-diphosphapentadecan-1-aminium, 7-[(hexadecyloxy)methyl]-4-hydroxy-9-methoxy-N,N,N-trimethyl-, hydroxide, 4-(inner salt),4,9-dioxide, more polar isomer], the “% Inh.” value was “STIM” on porcine pancreatic PLA2 [3] (dose 25 μ/ml, subs. con. 2); 82% on porcine pancreatic PLA2 [1] (dose 10 μ/ml); 89% on porcine pancreatic PLA2 [1] (dose 20 μ/ml).
On to `CCCCCCCCCCCCCCCCOC[C@@H](COP(=O)([O-])OCC[N+](C)(C)C)OP(=O)(O)OCCCCCCCCCCCCCCCC` [3,5,8,10-Tetraoxa-4,9-diphosphahexacosan-1-aminium, 7-[(hexadecyloxy)methyl]-4,9-dihydroxy-N,N,N-trimethyl-, hydroxide, 4-(inner salt), 4,9-dioxide, (7S)], for which the inhibition at 10 µg/mL at porcine pancreatic PLA2 [1] (setting [6]) came to 17%. At porcine pancreatic PLA2 [1] (dose 20 μ/ml, read-out: % Inh. Avg.), the inhibition at 20 µg/mL amounted to 16%. Further, on porcine pancreatic PLA2 [1] (read-out: % Inh.), the inhibition at 25 µg/mL is 8%. The “% Inh.” value at porcine pancreatic PLA2 [2] (dose 10 μ/ml) and at porcine pancreatic PLA2 [2] (dose 25 μ/ml) was “STIM” throughout.
Regarding `CCCCCCCCCCCCCCCCOCC(COP(=O)([O-])OCC[N+](C)(C)C)OP(=O)(OC)OCCCCC` (single isomer, unassigned) [3,5,8,10-Tetraoxa-4,9-diphosphapentadecan-1-aminium, 7-[(hexadecyloxy)methyl]-4-hydroxy-9-methoxy-N,N,N-trimethyl-, hydroxide, 4-(inner salt),4,9-dioxide, more polar isomer], the IC50 at porcine pancreatic PLA2 [1] (read-out: IC50 (converted)) was 3.87 µM. Also, the inhibition at 10 µg/mL on porcine pancreatic PLA2 [2] (setting [5]) was found to be 0%.
Take `CCCCCCCCCCCCCCCCOCC(COP(=O)([O-])OCC[N+](C)(C)C)OC(=O)CCl` (stereo not drawn) [7-[(Chloroacetyl)oxy]-4-hydroxy-N,N,N-trimethyl-3,5,9-trioxa-4-phosphapentacosan-1-aminium, hydroxide, inner salt, 4-oxide]: at porcine pancreatic PLA2 [3] (subs. con. 2, read-out: % Inh.), the inhibition at 10 µg/mL is 46% and the inhibition at 20 µg/mL came out at 72%. For the same molecule, on porcine pancreatic PLA2 [3] (subs. con. 2), half-maximal inhibition (IC50) was put at 17.4 µM. Further, the inhibition at 10 µg/mL on porcine pancreatic PLA2 [2] (setting [5]) was determined as 27%. On porcine pancreatic PLA2 [2] (setting [7]), the inhibition at 25 µg/mL was found to be 3%.
As to `CCCCCCCCCCCCCCCCOCC(COP(=O)([O-])OCC[N+](C)(C)C)OCC(=O)O` (stereo not drawn) [2,5,7-Trioxa-6-phosphanonan-9-aminium, 1-carboxy-3-[(hexadecyloxy)methyl]-6-hydroxy-N,N,N-trimethyl-, hydroxide, inner salt, 6-oxide], at porcine pancreatic PLA2 [1] (dose 20 μ/ml, read-out: % Inh.), the inhibition at 20 µg/mL is 44%. Further, the inhibition at 10 µg/mL on porcine pancreatic PLA2 [2] (setting [5]) worked out at 6%. At porcine pancreatic PLA2 [2] (setting [7]), the inhibition at 25 µg/mL is 30%.
Regarding `CCCCCCCCCCCCCCCCOCC(O)(COP(=O)([O-])OCC[N+](C)(C)C)CC(N)CC` (stereo not drawn) [7-(2-Aminobutyl)-4,7-dihydroxy-N,N,N-trimethyl-3,5,9-trioxa-4-phosphapentacosan-1-aminium, hydroxide, inner salt, 4-oxide], the inhibition at 10 µg/mL on porcine pancreatic PLA2 [3] (subs. con. 2, read-out: % Inh.) came out at 25%; at porcine pancreatic PLA2 [1] (dose 10 μ/ml, read-out: % Inh.), 89%. Also, the inhibition at 20 µg/mL was 61% on porcine pancreatic PLA2 [3] (subs. con. 2, read-out: % Inh.) and 94% at porcine pancreatic PLA2 [1] (dose 20 μ/ml, read-out: % Inh.). Moreover, the IC50 against porcine pancreatic PLA2 [3] (subs. con. 2) is 34.7 µM; at porcine pancreatic PLA2 [1] (read-out: IC50 (converted)) it was 2.35 µM.
As to `CCCCCCCCCCCCCCCCOCC(COP(=O)([O-])OCC[N+](C)(C)C)OP(=O)(OC)OCCCCCCCCCCCCCCCC` (stereo not drawn) [3,5,8,10-Tetraoxa-4,9-diphosphahexacosan-1-aminium, 7-[(hexadecyloxy)methyl]-4-hydroxy-9-methoxy-N,N,N-trimethyl-, hydroxide, inner salt, 4,9-dioxide], the IC50 was 4 µM and 3.5 µM on porcine pancreatic PLA2 [1] (read-out: IC50 (converted)); 3.75 µM on porcine pancreatic PLA2 [1] (setting [4]). The inhibition at 25 µg/mL at porcine pancreatic PLA2 [2] (setting [7]) was 62%.
For `CCCCCCCCCCCCCCCCOC[C@@H](COP(=O)([O-])OCC[N+](C)(C)C)OP(=O)(OC)OCCCCCCCCCCCCCCCC` (single isomer, unassigned) [3,5,8,10-Tetraoxa-4,9-diphosphahexacosan-1-aminium, 7-[(hexa], at porcine pancreatic PLA2 [2] (dose 25 μ/ml), the “% Inh.” value stood at 0%.
With `CCCCCCCCCCCCCCCCOCC(COP(=O)([O-])OCC[N+](C)(C)C)OC(=O)CBr` (stereo not drawn) [3,5,9-Trioxa-4-phosphapentacosan-1-aminium, 7-[(bromoacetyl)oxy]-4-hydroxy-N,N,N-trimethyl-, hydroxide, inner salt, 4-oxide], the inhibition at 10 µg/mL at porcine pancreatic PLA2 [3] (subs. con. 2, read-out: % Inh.) came to 52%; at porcine pancreatic PLA2 [2] (setting [5]) it was 35%; at porcine pancreatic PLA2 [2] (dose 10 μ/ml, subs. con. 10, read-out: % Inh. Avg.), 32%. The inhibition at 20 µg/mL on porcine pancreatic PLA2 [3] (subs. con. 2, read-out: % Inh.) came to 85%. Further, the IC50 at porcine pancreatic PLA2 [3] (subs. con. 2) was 8.13 µM; on porcine pancreatic PLA2 [2] (subs. con. 10, read-out: IC50 Avg. (converted)) it was 83 µM. For the same molecule, the inhibition at 25 µg/mL at porcine pancreatic PLA2 [2] (dose 25 μ/ml, subs. con. 10, read-out: % Inh.) turned out to be 78%; on porcine pancreatic PLA2 [2] (setting [7]), 50%.
As for `CCCCCCCCCCCCCCCCOCC(COP(=O)([O-])OCC[N+](C)(C)C)CC1CO1` (stereo not drawn) [4-Hydroxy-N,N,N-trimethyl-7-(oxiranylmethyl)-3,5,9-trioxa-4-phosphapentacosan-1-aminium, hydroxide, inner salt, 4-oxide], the inhibition at 25 µg/mL on porcine pancreatic PLA2 [3] (dose 25 μ/ml, subs. con. 2, read-out: % Inh.) was determined as 85%. Also, the inhibition at 10 µg/mL at porcine pancreatic PLA2 [1] (dose 10 μ/ml, read-out: % Inh.) worked out at 71%; at porcine pancreatic PLA2 [1] (setting [6]), 74%. The inhibition at 20 µg/mL at porcine pancreatic PLA2 [1] (dose 20 μ/ml, read-out: % Inh.) was found to be 88%. On porcine pancreatic PLA2 [1] (read-out: IC50 (converted)), the IC50 was 4.6 µM.
With `CCCCCCCCCCCCCCCCOCC(COP(=O)([O-])OCC[N+](C)(C)C)OP(=O)(OC)OCCCCC` (single isomer, unassigned) [3,5,8,10-Tetraoxa-4,9-diphosphapentadecan-1-aminium, 7-[(hex] [3,5,8,10-Tetraoxa-4,9-diphosphapentadecan-1-aminium, 7-[(hexadecyloxy)methyl]-4-hydroxy-9-methoxy-N,N,N-trimethyl-, hydroxide, 4-(inner salt), 4,9-dioxide, less polar isomer], at porcine pancreatic PLA2 [2] (dose 25 μ/ml), the “% Inh.” value is “STIM”.

A word on the IC50: it is the concentration needed to halve the response being measured.

These data come from patent US5208223A, “Phosphocholine derivative inhibitors of phospholipase A2” (American Cyanamid Company, priority 1992, dated 1993).
